# Experimental data taken from ChEMBL document CHEMBL1201862, “PubChem BioAssay data set” (2004).
#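 All cell lines were grown in 96-well plates and treated with compound for 48 hours. GI50 is the concentration that inhibits growth by half.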 Calls of active or inactive are those of the source. Rule as the data show it: active = GI50 up to about 1.1 µM and inactive = higher.
# Columns and labels:
# Assay in all cases: DTP human tumour cell line panel, 48 h
# [1] = system: SF-295
# [2] = system: SNB-19
# [3] = system: HCT-116
# [4] = system: SK-OV-3
# [5] = system: HOP-62
# [6] = system: A549
# [7] = system: NCI-H522
# [8] = system: MDA-N
# [9] = system: Malme-3M
# [10] = system: CCRF-CEM
# [11] = system: U-251
# [12] = system: HCT-15
# [13] = system: SR
# [14] = system: OVCAR-5
# [15] = system: NCI-H23
# [16] = system: SK-MEL-5
# [17] = system: BT-549
# [18] = system: MOLT-4
# [19] = system: SK-MEL-2
# [20] = system: SN12C
SMILES,GI50 [1],GI50 [2],GI50 [3],GI50 [4],GI50 [5],GI50 [6],GI50 [7],GI50 [8],GI50 [9],GI50 [10],GI50 [11],GI50 [12],GI50 [13],GI50 [14],GI50 [15],GI50 [16],GI50 [17],GI50 [18],GI50 [19],GI50 [20]
CN(Cc1ccccc1)Cn1ccnc1,> 82.6 µM (inactive),> 100 µM (inactive),39.4 µM (inactive),> 100 µM (inactive),> 100 µM (inactive),> 100 µM (inactive),89.3 µM (inactive),76 µM (inactive),24.9 µM (inactive),32200 nM (inactive),> 71 µM (inactive),59.4 µM,26200 nM (inactive),> 100 µM (inactive),> 85.5 µM (inactive),37.9 µM (inactive),> 100 µM (inactive),46.5 µM (inactive),> 100 µM (inactive),95.1 µM (inactive)
CCOC(=O)Nc1nc2cc(Cn3cccc3)ccc2[nH]1,0.807 µM (active),1.83 µM (inactive),1.02 µM (active),1.5 µM (inactive),1.36 µM (inactive),1.22 µM (inactive),0.533 µM (active),0.157 µM (active),1.09 µM (active),581 nM (active),1.2 µM (inactive),0.986 µM,735 nM (active),16 µM (inactive),4.82 µM (inactive),0.51 µM (active),> 20.2 µM (inactive),0.64 µM (active),2.01 µM (inactive),2.33 µM (inactive)
Cc1nc2c(O)c3c(c(O)c2nc1C)C1C=CC3CC1,29.7 µM (inactive),> 64.1 µM (inactive),6.27 µM (inactive),22 µM (inactive),19.6 µM (inactive),24.9 µM (inactive),16 µM (inactive),2.97 µM (inactive),12.7 µM (inactive),1250 nM (inactive),9.44 µM (inactive),17.1 µM,9590 nM (inactive),18.3 µM (inactive),5.86 µM (inactive),14 µM (inactive),15.7 µM (inactive),1.06 µM (active),11.8 µM (inactive),12.7 µM (inactive)
C=CC1(CBr)CCC(C(C)(C)Br)O1 (stereo not given),12.3 µM (inactive),15.8 µM (inactive),6.64 µM (inactive),14.5 µM (inactive),15.9 µM (inactive),17.3 µM (inactive),2.51 µM (inactive),8.57 µM (inactive),13.7 µM (inactive),2080 nM (inactive),6.27 µM (inactive),6.64 µM,2520 nM (inactive),14.7 µM (inactive),6.98 µM (inactive),9.86 µM (inactive),16.7 µM (inactive),2.21 µM (inactive),12.8 µM (inactive),16.6 µM (inactive)
CCCC(=O)Nc1cc(/C=C/C(=O)N2CC(CCl)c3c2cc(OC(C)=O)c2[nH]cc(C)c32)n(C)c1 (stereo not given),4.52e-05 µM (active),0.00011 µM (active),< 2.5e-05 µM (active),7.05e-05 µM (active),4.63e-05 µM (active),8.19e-05 µM (active),< 2.5e-05 µM (active),5.12e-05 µM (active),3.23e-05 µM (active),< 0.025 nM (active),< 2.5e-05 µM (active),0.000547 µM,< 0.025 nM (active),7.24e-05 µM (active),< 2.5e-05 µM (active),< 2.5e-05 µM (active),8.09e-05 µM (active),< 2.5e-05 µM (active),5.92e-05 µM (active),7.18e-05 µM (active)
COc1cc(C(c2cccc3ccccc23)N2C(=O)CCC2C(=O)NCc2ccccc2)cc(OC)c1OC (stereo not given),> 100 µM (inactive),> 100 µM (inactive),> 100 µM (inactive),> 100 µM (inactive),> 100 µM (inactive),> 100 µM (inactive),> 100 µM (inactive),> 100 µM (inactive),> 100 µM (inactive),93300 nM (inactive),> 100 µM (inactive),> 100 µM,> 100000 nM (inactive),> 100 µM (inactive),> 100 µM (inactive),> 100 µM (inactive),> 100 µM (inactive),78 µM (inactive),> 100 µM (inactive),> 100 µM (inactive)
C=C(CN(C)C)C(=O)c1ccccc1,31.4 µM (inactive),30.9 µM (inactive),5.51 µM (inactive),21.7 µM (inactive),32.9 µM (inactive),22.5 µM (inactive),1.02 µM (active),14.2 µM (inactive),2.41 µM (inactive),631 nM (active),18.7 µM (inactive),10.2 µM,2090 nM (inactive),16.5 µM (inactive),19.4 µM (inactive),15.2 µM (inactive),11.2 µM (inactive),1.91 µM (inactive),15.2 µM (inactive),17.4 µM (inactive)
c1csc(-c2cscc2-c2ccsc2)c1,> 66.8 µM (inactive),> 57.5 µM (inactive),41.2 µM (inactive),47.4 µM (inactive),42.3 µM (inactive),47.9 µM (inactive),22.2 µM (inactive),33.3 µM (inactive),20.9 µM (inactive),41800 nM (inactive),> 100 µM (inactive),30.3 µM,26600 nM (inactive),> 69.2 µM (inactive),35.3 µM (inactive),75.9 µM (inactive),> 100 µM (inactive),26.2 µM (inactive),52.2 µM (inactive),> 86.1 µM (inactive)
C=C(CN(C)C)C(=O)c1ccc(Oc2ccccc2)cc1,16.7 µM (inactive),9.64 µM (inactive),2.16 µM (inactive),21.3 µM (inactive),19.7 µM (inactive),19.5 µM (inactive),1.55 µM (inactive),3.02 µM (inactive),3.85 µM (inactive),272 nM (active),10.3 µM (inactive),3.68 µM,692 nM (active),7.4 µM (inactive),7.71 µM (inactive),7.21 µM (inactive),6.18 µM (inactive),0.356 µM (active),9.2 µM (inactive),5.37 µM (inactive)
COc1ccc(NC/C=C/C(=C/COC(C)=O)OC(C)=O)cc1,2.12 µM (inactive),3.27 µM (inactive),1.81 µM (inactive),14.9 µM (inactive),2.42 µM (inactive),15.3 µM (inactive),2.72 µM (inactive),2.05 µM (inactive),2.34 µM (inactive),1770 nM (inactive),2.44 µM (inactive),2.41 µM,514 nM (active),1.75 µM (inactive),2.06 µM (inactive),15.3 µM (inactive),1.59 µM (inactive),4.75 µM (inactive),2.28 µM (inactive),2.12 µM (inactive)
O=C1C(Cl)=C(NCCO)C(=O)c2c(O)ccc(O)c21,1.95 µM (inactive),5.33 µM (inactive),1.95 µM (inactive),> 10 µM (inactive),3.28 µM (inactive),1.87 µM (inactive),> 10 µM (inactive),1.77 µM (inactive),1.4 µM (inactive),4140 nM (inactive),6.27 µM (inactive),2.53 µM,2410 nM (inactive),2.37 µM (inactive),2.6 µM (inactive),1.41 µM (inactive),4.26 µM (inactive),3.33 µM (inactive),3.02 µM (inactive),2.56 µM (inactive)
CCOC(=O)CN1C(=O)c2ccc(NC(=O)C(=O)O)cc2S1(=O)=O,> 100 µM (inactive),> 100 µM (inactive),> 100 µM (inactive),> 100 µM (inactive),> 100 µM (inactive),> 100 µM (inactive),> 100 µM (inactive),> 100 µM (inactive),> 100 µM (inactive),> 100000 nM (inactive),> 100 µM (inactive),> 100 µM,> 100000 nM (inactive),> 100 µM (inactive),> 100 µM (inactive),> 100 µM (inactive),> 100 µM (inactive),> 100 µM (inactive),> 100 µM (inactive),> 100 µM (inactive)
Cc1ccc(/N=N/c2c(O)ccc3cc(S(=O)(=O)O)cc(S(=O)(=O)O)c23)cc1,> 100 µM (inactive),> 100 µM (inactive),> 100 µM (inactive),> 100 µM (inactive),> 100 µM (inactive),> 100 µM (inactive),> 100 µM (inactive),> 100 µM (inactive),> 100 µM (inactive),> 100000 nM (inactive),> 100 µM (inactive),> 100 µM,> 100000 nM (inactive),> 100 µM (inactive),> 100 µM (inactive),> 100 µM (inactive),> 100 µM (inactive),> 100 µM (inactive),> 100 µM (inactive),> 100 µM (inactive)
